Measurements from patent publication US12116357B2, “Heteroaryl-triazole and heteroaryl-tetrazole compounds as pesticides” (Bayer Aktiengesellschaft, priority 2018, dated 2024).
One block for each compound: values may come before it.

Key:
[1] = log P by HPLC on reversed phase columns (EEC directive 79/831 Annex V.A8); assay type: physicochemical; conditions: reversed phase HPLC column, LC-UV, neutral range, 0.001 molar ammonium acetate in water and acetonitrile (table footnote); read-out: LogP^[a]
Myzus persicae = Myzus persicae oral test; assay type: in vivo; conditions: 120 h
Method: • Solvent: 100 parts by weight acetone
To produce a suitable preparation of active compound, 1 part by weight of active compound is mixed with the stated amount of solvent, and the concentrate is diluted with water to the desired concentration. 50 μl compound solution is filled in microtiter plates and 150 μl IPL41 insect medium (33%+15% sugar) is added to obtain a total volume of 200 μl per well. Afterwards the plates are sealed with parafilm through which a mixed population of the green peach aphid (Myzus persicae) can suck on the compound preparation.
After 5 days mortality in % is determined. 100% means all aphids have been killed and 0% means none of the aphids have been killed.

Spodoptera frugiperda = Spodoptera frugiperda spray test; assay type: in vivo; conditions: 168 h
Method: • Solvent: 78.0 parts by weight acetone • 1.5 parts by weight dimethylformamide • Emulsifier: alkylarylpolyglycol ether
(§1) To produce a suitable preparation of active compound, 1 part by weight of active compound is mixed with the stated amount of solvents and is diluted with water, containing an emulsifier concentration of 1000 ppm, to the desired concentration. Further test concentrations are prepared by dilution with emulsifier containing water.
Maize (Zea mays) leaf sections are sprayed with a preparation of the active ingredient of the desired concentration. Once dry, the leaf sections are infested with fall armyworm larvae (Spodoptera frugiperda).
After 7 days mortality in % is determined. 100% means all caterpillars have been killed and 0% means none of the caterpillars have been killed.

Boophilus microplus = Boophilus microplus injection test; assay type: in vivo; conditions: Rhipicephalus microplus, 168 h, 20 μg/animal, egg deposition after 7 days, read-out: efficacy (infertile eggs)
Method: (§2) • Solvent: dimethyl sulfoxide
To produce a suitable preparation of active compound, 10 mg of active compound are dissolved in 0.5 ml solvent, and the concentrate is diluted with solvent to the desired concentration.
Five adult engorged female ticks (Boophilus microplus) are injected with 1 μl compound solution into the abdomen. The ticks are transferred into replica plates and incubated in a climate chamber.
After 7 days egg deposition of fertile eggs is monitored. Eggs where fertility is not visible are stored in a climate chamber till hatching after about 42 days. An efficacy of 100% means all eggs are infertile; 0% means all eggs are fertile.

Phaedon cochleariae = Phaedon cochleariae spray test; assay type: in vivo; conditions: 168 h, after 7 days
Method: (§3) • Solvent: 78.0 parts by weight of acetone • 1.5 parts by weight of dimethylformamide • Emulsifier: alkylarylpolyglycol ether
as §1
Chinese cabbage (Brassica pekinensis) leaf disks are sprayed with a preparation of the active ingredient of the desired concentration. Once dry, the leaf disks are infested with mustard beetle larvae (Phaedon cochleariae).
After 7 days mortality in % is determined. 100% means all beetle larvae have been killed and 0% means none of the beetle larvae have been killed.

Nezara viridula = Nezara viridula spray test; assay type: in vivo; conditions: 96 h
Method: as §3
as §1, with “solvent,” for “solvents”, “and the concentrate” for “and”
Barley plants (Hordeum vulgare) infested with larvae of the southern green stink bug (Nezara viridula) are sprayed with a test solution containing the desired concentration of the active ingredient.
After 4 days mortality in % is determined. 100% means all the stink bugs have been killed; 0% means none of the stink bugs have been killed.

Ctenocephalides felis = Ctenocephalides felis oral test; assay type: in vivo; conditions: 48 h, 100 ppm in cattle blood, after 2 days
Method: as §2
To produce a suitable preparation of active compound, 10 mg of active compound are dissolved in 0.5 ml solvent, and the concentrate is diluted with cattle blood to the desired concentration.
Approximately 20 adult unfed cat fleas (Ctenocephalides felis) are placed in flea chambers. The blood chamber, sealed with parafilm on the bottom, are filled with cattle blood supplied with compound solution and placed on the gauze covered top of the flea chamber, so that the fleas are able to suck the blood. The blood chamber is heated to 37° C. whereas the flea chamber is kept at room temperature.
After 2 days mortality in % is determined. 100% means all the fleas have been killed; 0% means none of the fleas have been killed.

[2] = test system: Aedes aegypti strain MONHEIM; experiment: Aedes aegypti test (surface treatment & contact assay); assay type: in vivo; conditions: surface concentration 20 mg/m^2, 30 min exposure, 24 hours after contact, read-out: efficacy (mortality)
Method: • Solvent: Aceton+2000 ppm rapeseed oil methyl ester (RME)
In order to produce a sufficient, active ingredient containing solution it is necessary to solve the test compound in the solvent-mix (acetone at 2 mg/ml/RME 2000 ppm). This solution is pipetted onto a glazed tile and after evaporation of the acetone, adult mosquitoes of the species Aedes aegypti strain MONHEIM are placed onto the dried surface. The exposure time is 30 minutes.
Mortality in percent (%) is determined 24 hours after contact of the insects to the treated surface. 100% mortality means that all tested insects are dead, whereas 0% means that no insect died.

SMILES: CC(NCC1OCCO1)c1ncnn1-c1ncccn1 (stereo not shown) [a-022]
- chromatographic logP [1]: 0.53

SMILES: CC(c1ncnn1-c1ncccn1)N(CC1(C)CC1)C(=O)c1cc(Cl)cc(C(F)(F)F)c1 (stereo not shown) [Example I-009]
- mortality at 4 ppm (Myzus persicae): 100%
- mortality at 20 ppm (Myzus persicae): 100%
- mortality at 500 g/ha (Spodoptera frugiperda): 100%
- pest or weed control at 0.02 mg (Boophilus microplus): 80%
- mortality at 500 g/ha (Phaedon cochleariae): 100%
- mortality at 500 g/ha (Nezara viridula): 100%
- mortality at 100 ppm (Ctenocephalides felis): 100%

SMILES: CC(NC1COC1)c1ncnn1-c1ncccn1 (stereo not shown) [a-021]
- chromatographic logP [1]: 0.26

SMILES: CC(NCc1ccc(C#N)cc1)c1ncnn1-c1ncccn1 (stereo not shown) [a-018]
- chromatographic logP [1]: 1.35

SMILES: CC(c1ncnn1-c1ncccn1)N(CC1(c2ccccc2)CC1)C(=O)c1cc(Cl)cc(C(F)(F)F)c1 (stereo not shown) [Example I-006]
- mortality at 20 mg/m2 [2]: 90 to 100%
- mortality at 20 ppm (Myzus persicae): 90%
- mortality at 500 g/ha (Spodoptera frugiperda): 100%
- mortality at 500 g/ha (Phaedon cochleariae): 100%
- mortality at 100 ppm (Ctenocephalides felis): 100%

SMILES: CC(NC1CSC1)c1ncnn1-c1ncccn1 (stereo not shown) [a-023]
- chromatographic logP [1]: 0.87

SMILES: COc1ccc(CN(C(=O)c2cc(Cl)cc(C(F)(F)F)c2)C(C)c2ncnn2-c2ncccn2)cc1 (stereo not shown) [Example I-020]
- mortality at 20 ppm (Myzus persicae): 100%
- pest or weed control at 0.02 mg (Boophilus microplus): 80%
- mortality at 500 g/ha (Nezara viridula): 100%
- mortality at 100 ppm (Ctenocephalides felis): 100%

SMILES: CC(NCc1cccnc1)c1ncnn1-c1ncccn1 (stereo not shown) [a-019]
- chromatographic logP [1]: 0.68

SMILES: CC(NCC1CCCC1)c1ncnn1-c1ncccn1 (stereo not shown) [a-004]
- chromatographic logP [1]: 1.67

SMILES: CC(NCCSC(F)(F)F)c1ncnn1-c1ccc(C#N)cn1 (stereo not shown) [a-026]
- chromatographic logP [1]: 2.51

SMILES: CC(NCC1CCOCC1)c1ncnn1-c1ncccn1 (stereo not shown) [a-003]
- chromatographic logP [1]: 0.85

Further lines, results first:

- chromatographic logP [1]: 0.52
SMILES: COCCNC(C)c1ncnn1-c1ncccn1 (stereo not shown) [a-006]

- chromatographic logP [1]: 0.92
SMILES: CSCCNC(C)c1ncnn1-c1ncccn1 (stereo not shown) [a-017]

- chromatographic logP [1]: 0.42
SMILES: CONC(C)c1ncnn1-c1ncccn1 (stereo not shown) [a-024]

- chromatographic logP [1]: 0.53
SMILES: CC(NCc1ccncc1)c1ncnn1-c1ncccn1 (stereo not shown) [a-014]

- chromatographic logP [1]: 1.41
SMILES: COc1ccc(CNC(C)c2ncnn2-c2ncccn2)cc1 (stereo not shown) [a-020]

- chromatographic logP [1]: 0.51
SMILES: CC(NCC1CS(=O)(=O)C1)c1ncnn1-c1ncccn1 (stereo not shown) [a-008]

- chromatographic logP [1]: 1.12
SMILES: CC(NCC1CSC1)c1ncnn1-c1ncccn1 (stereo not shown) [a-007]
